Data on 11 molecules can be found in patent US20090176811A1, “Substituted 5,6,7,8-Tetrahydro-pyrido[4,3-d]pyrimidine-2-yl Compounds and 5,6,7,8-Tetrahydro-quinazoline-2-yl Compounds” (GRUENENTHAL GmbH, priority 2004, published 2009).

In assay [1] the target is T1, mGluR5 receptor (Sus scrofa, UniProt I3LUI7).
T1 construct: 450 μg of protein from brain homogenate is incubated; from tissue; host or cells: pig brain hemispheres without medulla, cerebellum and pons
Briefly: Affinity for the mGluR5 receptor ([3H]-MPEP binding, pig brain homogenate). The settings on record: 10 μM compound, 15 nM [3H]-MPEP. On the procedure:
III. Method for Determining Affinity for the mGluR5 Receptor
Pig brain homogenate is produced by homogenisation (Polytron Pt 3000, Kinematica AG, 10,000 rpm (revolutions per minute) for 90 seconds) of pig brain hemispheres without medulla, cerebellum and pons in a buffer of pH 8.0 (30 mM Hepes, Sigma, order number H3375+1 tablet Complete Roche Diagnostics, order number 1836145 made up to 100 ml) in a ratio of 1:20 (brain weight/volume) and differential centrifugation at 900 g and 40,000 g. 450 μg of protein from brain homogenate is incubated in each case in 250 μl incubation batches in 96-well microtitre plates with 15 nM ^3[H]-MPEP (Tocris, order number R1212) and the compounds to be investigated (in each case 10 μM in the test) in the above-stated buffer at room temperature for 60 minutes.
The batches are then filtered with the assistance of a Brandel Cell Harvester (Brandel, Grade Robotic 9600) on Unifilter plates with glass filter mats (Perkin Elmer, order number 6005177) and then rewashed 3 times with buffer of the above-stated composition using 250 μl per sample. The filter plates are then dried for 60 minutes at 55° C. Then 30 μl of Ultima Gold scintillating material (Packard BioScience, order number 6013159) is added per well and after 3 hours the samples are measured using the B counter ([…], Perkin Elmer). Nonspecific binding is determined by the addition of 10 μM 2-methyl-6-(phenylethynyl)-pyridine (Tocris, order number 1212).

Assay [2] has as its target T2, 5-HT transporter (Rattus norvegicus, UniProt P31652).
T2 construct: from tissue; host or cells: rat medulla and pons synaptosomes (P2 fraction)
As to the kind of experiment: 5-HT uptake inhibition in rat brain synaptosomes (medulla and pons). In kind it is biochemical. The procedure, abridged: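 Freshly isolated P2 synaptosomes from rat hypothalamus (noradrenalin) or medulla and pons (5-HT) incubated at room temperature under O2 with [3H]-NA for 7.5 min or [3H]-5-HT for 5 min. Uptake measured by filtration and scintillation counting.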

In assay [3] the target is T3, NA transporter (Rattus norvegicus, UniProt Q63380).
T3 construct: from tissue; host or cells: rat hypothalamus synaptosomes (P2 fraction)
Briefly: Noradrenalin uptake inhibition in rat brain synaptosomes (hypothalamus). Format: biochemical. An excerpt: I. Method for Determining Noradrenalin and 5-HT Uptake Inhibition:
Synaptosomes from rat brain regions are freshly isolated for in vitro studies, as described in the publication “The isolation of nerve endings from brain” by E. G. Gray and V. P. Whittaker, J. Anatomy 96, pages 79-88, 1962. The corresponding literature description is hereby introduced as a reference and is deemed to be part of the disclosure.
The tissue (hypothalamus for the determination of noradrenalin uptake inhibition and medulla and pons for the determination of 5-HT uptake inhibition) is homogenised in ice-cooled 0.32 M sucrose (100 mg of tissue/1 mL) in a glass homogeniser with Teflon pestle using five complete up and down strokes at 840 revolutions/minute.
The homogenate is centrifuged at 4° C. for 10 minutes at 1000 g. After subsequent centrifugation at 17000 g for 55 minutes, the synaptosomes (P2 fraction) are obtained, which are resuspended in 0.32 M […] (0.5 mL/100 mg of original weight).
The particular uptake is measured in a 96-well microtitre plate. The volume is 250 μl and the incubation proceeds at room temperature (approx. 20-25° C.) under an O2 atmosphere.
The incubation time is 7.5 minutes for [^3H]-NA and 5 minutes for [^3H]-5-HT.
The 96 samples are then filtered through a Unifilter GF/B microtitre plate (Packard) and washed with 200 mL of incubated buffer using a “Brabdel MPXRI-96T Cell-Harvester”. The Unifilter GF/B plate is dried for 1 hour at 55° C. The plate is then sealed with a Back seal (Packard) and 35 μl of scintillation fluid are added per well (Ultima Gold, Packard). After sealing with a top seal (Packard) and establishing an equilibrium (around 5 hours), radioactivity is determined in a “Trilux 1450 Microbeta” (Wallac).
The quantity of protein used in the above determination corresponds to the values known from the literature, as for example described in “Protein measurement with the folin phenol reagent”, Lowry et al., J. Biol. Chem., 193, 265-275, 1951.
A detailed description of the method may additionally be found in the literature, for example in M. Ch. Frink, H.-H. Hennies, W. Engelberger, M. Haurand and B. Wilffert (1996) Arzneim.-Forsch./Drug Res. 46 (III), 11, 1029-1036.
The corresponding literature descriptions are hereby introduced in each case as a reference and are deemed to be part of the present disclosure.
The following characteristics were determined for the NA or 5-HT transporter: […]

T2 sequence (P31652 whole entry): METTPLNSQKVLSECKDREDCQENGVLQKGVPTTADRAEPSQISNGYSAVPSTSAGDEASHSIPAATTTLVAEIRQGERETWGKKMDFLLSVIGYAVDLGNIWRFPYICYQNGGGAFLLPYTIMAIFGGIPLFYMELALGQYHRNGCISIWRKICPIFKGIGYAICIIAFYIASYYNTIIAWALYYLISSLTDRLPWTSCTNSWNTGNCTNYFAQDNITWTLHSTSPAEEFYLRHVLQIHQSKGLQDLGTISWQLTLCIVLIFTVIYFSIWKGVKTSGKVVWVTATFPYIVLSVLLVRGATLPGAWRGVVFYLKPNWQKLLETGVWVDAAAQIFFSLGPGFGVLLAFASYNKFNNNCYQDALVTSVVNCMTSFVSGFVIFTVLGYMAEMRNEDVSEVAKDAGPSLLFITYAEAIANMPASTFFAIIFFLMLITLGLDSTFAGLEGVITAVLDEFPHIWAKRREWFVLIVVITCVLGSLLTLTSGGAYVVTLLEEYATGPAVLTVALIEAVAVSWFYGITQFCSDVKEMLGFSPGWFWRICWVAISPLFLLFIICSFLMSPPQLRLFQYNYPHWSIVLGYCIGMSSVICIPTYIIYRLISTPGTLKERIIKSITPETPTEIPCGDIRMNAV
T1 sequence (I3LUI7 19-1212): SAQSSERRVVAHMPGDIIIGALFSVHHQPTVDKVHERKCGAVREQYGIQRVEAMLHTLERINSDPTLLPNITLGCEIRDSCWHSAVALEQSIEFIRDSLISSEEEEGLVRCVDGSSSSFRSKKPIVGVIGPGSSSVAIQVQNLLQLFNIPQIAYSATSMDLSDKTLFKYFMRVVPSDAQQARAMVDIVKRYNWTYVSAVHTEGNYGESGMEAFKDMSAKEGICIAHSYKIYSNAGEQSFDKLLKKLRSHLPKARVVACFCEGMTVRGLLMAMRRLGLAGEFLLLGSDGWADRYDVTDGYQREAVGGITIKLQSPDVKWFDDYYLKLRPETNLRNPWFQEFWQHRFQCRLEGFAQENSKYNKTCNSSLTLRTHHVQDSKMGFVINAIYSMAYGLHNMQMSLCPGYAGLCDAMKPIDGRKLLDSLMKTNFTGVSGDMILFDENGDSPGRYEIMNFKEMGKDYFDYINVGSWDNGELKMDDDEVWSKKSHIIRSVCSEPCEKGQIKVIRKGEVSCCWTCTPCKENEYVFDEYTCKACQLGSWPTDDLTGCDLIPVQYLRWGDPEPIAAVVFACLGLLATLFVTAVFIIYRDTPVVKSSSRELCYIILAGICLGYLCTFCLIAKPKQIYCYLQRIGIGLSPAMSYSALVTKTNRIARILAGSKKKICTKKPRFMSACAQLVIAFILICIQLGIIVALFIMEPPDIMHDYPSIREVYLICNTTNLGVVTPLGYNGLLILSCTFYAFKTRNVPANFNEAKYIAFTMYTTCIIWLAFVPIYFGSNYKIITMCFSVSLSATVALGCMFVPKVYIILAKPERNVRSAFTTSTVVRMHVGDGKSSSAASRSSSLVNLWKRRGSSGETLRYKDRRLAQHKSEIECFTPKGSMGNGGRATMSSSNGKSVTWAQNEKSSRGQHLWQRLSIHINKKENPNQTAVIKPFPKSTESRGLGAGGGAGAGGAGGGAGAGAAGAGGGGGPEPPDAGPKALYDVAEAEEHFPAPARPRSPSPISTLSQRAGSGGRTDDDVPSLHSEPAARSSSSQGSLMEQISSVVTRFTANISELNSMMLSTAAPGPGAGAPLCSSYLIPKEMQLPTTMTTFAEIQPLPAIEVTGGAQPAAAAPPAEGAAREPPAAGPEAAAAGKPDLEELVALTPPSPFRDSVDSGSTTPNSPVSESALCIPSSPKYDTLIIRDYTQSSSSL
T3 sequence (Q63380 1-617): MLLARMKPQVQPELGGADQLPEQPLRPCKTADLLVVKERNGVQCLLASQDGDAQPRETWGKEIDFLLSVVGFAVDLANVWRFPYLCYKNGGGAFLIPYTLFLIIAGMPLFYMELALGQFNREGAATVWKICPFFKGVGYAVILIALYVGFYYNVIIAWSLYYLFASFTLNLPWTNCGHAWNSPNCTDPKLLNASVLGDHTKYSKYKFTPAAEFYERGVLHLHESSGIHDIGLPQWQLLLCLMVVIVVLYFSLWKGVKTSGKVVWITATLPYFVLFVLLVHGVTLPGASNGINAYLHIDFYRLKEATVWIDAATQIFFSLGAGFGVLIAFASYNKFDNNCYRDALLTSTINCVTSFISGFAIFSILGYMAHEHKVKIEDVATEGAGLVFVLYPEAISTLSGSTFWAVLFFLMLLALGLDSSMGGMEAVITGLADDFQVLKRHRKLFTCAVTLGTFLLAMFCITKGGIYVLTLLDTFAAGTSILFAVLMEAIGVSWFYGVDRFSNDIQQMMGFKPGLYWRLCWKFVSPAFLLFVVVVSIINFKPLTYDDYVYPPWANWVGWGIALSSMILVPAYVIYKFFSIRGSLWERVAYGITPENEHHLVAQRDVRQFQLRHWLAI

`Cc1ccc(C(=O)Nc2ncc3c(n2)CCN(C(=O)COc2cccc(Cl)c2)C3)cc1` [Example 189, N-{6-[2-(3-chloro-phenoxy)-acetyl]-5,6,7,8-tetrahydro-pyrido[4,3-d]pyrimidin-2-yl}-4-methyl-benzamide]: the inhibition (as a rule, the percentage by which the read-out fell short of the control) at 10 µM in assay [1] is 39.5%; in assay [3], 53%. This molecule also had an inhibition at 1 µM in assay [2] of 46%.
In the same order, the values of `O=C(Nc1ncc2c(n1)CCN(C(=O)c1ccc(Cl)c(Cl)c1)C2)c1ccccc1F` [Example 113, N-[6-(3,4-dichloro-benzoyl)-5,6,7,8-tetrahydro-pyrido[4,3-d]pyrimidin-2-yl]-2-fluoro-benzamide] are 31.3%, 67% and 45%.
For the molecule `Cc1ccc(C(=O)N2CCc3nc(NC(=O)c4cccc5ccccc45)ncc3C2)cc1F` [Example 154, naphthalene-1-carboxylic acid [6-(3-fluoro-4-methyl-benzoyl)-5,6,7,8-tetrahydro-pyrido[4,3-d]pyrimidin-2-yl]-amide], the inhibition at 10 µM in assay [1] amounted to 30.7%; in assay [3] it was 50%.
As to `CCCCC(C)CCC(=O)N1CCc2nc(NC(=O)c3cccc4ccccc34)ncc2C1` (stereo not shown) [Example 193, naphthalene-1-carboxylic acid [6-(4-methyl-octanoyl)-5,6,7,8-tetrahydro-pyrido[4,3-d]pyrimidin-2-yl]-amide], the inhibition at 10 µM in assay [1] amounted to 51.8%; in assay [3] it was 43%. For the same molecule, the inhibition at 1 µM in assay [2] stood at 38%.
As to `O=C(Nc1ncc2c(n1)CCC(NS(=O)(=O)c1cc(Cl)sc1Cl)C2)c1cccs1` (stereo not shown) [Example 180, thiophene-2-carboxylic acid [6-(2,5-dichloro-thiophene-3-sulfonylamino)-5,6,7,8-tetrahydro-quinazolin-2-yl]-amide], the inhibition at 10 µM turned out to be 86.7% in assay [1] and 34% in assay [3].
As for `CCc1ccc(C(=O)Nc2ncc3c(n2)CCN(S(=O)(=O)c2ccc(OC)cc2)C3)cc1` [Example 172, 4-ethyl-N-[6-(4-methoxy-benzenesulfonyl)-5,6,7,8-tetrahydro-pyrido[4,3-d]pyrimidin-2-yl]-benzamide], the inhibition at 10 µM in assay [1] came to 70.1%; in assay [3] it was 85%. The same molecule had an inhibition at 1 µM in assay [2] of 57%.
For the molecule `Cc1ccc(S(=O)(=O)N2CCc3nc(NC(=O)c4cccc(F)c4)ncc3C2)cc1` [Example 143, 3-fluoro-N-[6-(toluene-4-sulfonyl)-5,6,7,8-tetrahydro-pyrido[4,3-d]pyrimidin-2-yl]-benzamide], the inhibition at 10 µM in assay [1] was determined as 37.2%; in assay [3], 53%.
`CCOc1ccccc1C(=O)Nc1ncc2c(n1)CCN(S(=O)(=O)c1ccccc1C(=O)OC)C2` [Example 82, 2-[2-(2-ethoxy-benzoylamino)-7,8-dihydro-5H-pyrido[4,3-d]pyrimidine-6-sulfonyl]-benzoic acid methyl ester]: the results for the inhibition at 10 µM in assay [1] and in assay [3] were 36.3% and 32%, respectively.
On to `Cc1cc(C(=O)NC2CCc3nc(NC(=O)c4cccs4)ncc3C2)ccc1Br` (stereo not shown) [Example 115, thiophene-2-carboxylic acid [6-(4-bromo-3-methyl-benzoylamino)-5,6,7,8-tetrahydro-quinazolin-2-yl]-amide], for which the inhibition at 10 µM turned out to be 34.3% in assay [1] and 49% in assay [3]. Further, the inhibition at 1 µM in assay [2] amounted to 56%.
For the molecule `O=C(Nc1ncc2c(n1)CCN(C(=O)c1ccc(Cl)c(Cl)c1)C2)c1cccnc1` [Example 156, N-[6-(3,4-dichloro-benzoyl)-5,6,7,8-tetrahydro-pyrido[4,3-d]pyrimidin-2-yl]-nicotinamide], the inhibition at 10 µM in assay [1] is 46%; in assay [3], 50%.
For `Cc1ccc(C(=O)Nc2ncc3c(n2)CCN(S(=O)(=O)c2cc(F)ccc2C)C3)cc1` [Example 107, N-[6-(5-fluoro-2-methyl-benzenesulfonyl)-5,6,7,8-tetrahydro-pyrido[4,3-d]pyrimidin-2-yl]-4-methyl-benzamide], the inhibition at 10 µM in assay [1] was 38.2%; in assay [3], 39%. This molecule registered an inhibition at 1 µM in assay [2] of 36%.
